Experimental findings from patent US20220272990A1, “Methods and Compositions of the Botanical Extract to Promote and Boost Plant Growth and Prevent and Suppress Plant Diseases” (priority 2019, published 2022) are described below.

One assay has as its system Fusarium graminearum. In kind it is cell-based. As to conditions: thyme, yarrow extracts; 35% ethanol.
The subject of another assay is Xanthomonas campestris. The assay can be described thus: Burkholder's spot bioassay on carpet of bacteria. In kind it is cell-based.
For a further assay, the system named is Env. Salmonella (S22). Briefly: Burkholder's spot bioassay on carpet of bacteria. In kind it is cell-based. As to conditions: Salmonella spp. (S22); composition 2% + thymol 1:512, or single dose of thymol 1:512. The protocol: Referring now to FIGS. 26A to 26C, environmental Salmonella (S22) treated with thyme, yarrow, the botanical composition and control (C) are shown. […] A determined volume of (i.e. 10 μl) dissolved extract from each concentration is spotted on carpet of bacteria.

A further assay relates to Salmonella (S31). Briefly: Burkholder's spot bioassay on carpet of bacteria. In kind it is cell-based. As to conditions: Salmonella spp. (S531); composition 2% + thymol 1:512, or single dose of thymol 1:512. An excerpt:
Referring now to FIG. 28, Salmonella (S31—mungbean sprout isolate) treated with thyme is shown.

The subject of another assay is Aspergillus ochraceus. The assay can be described thus: Antifungal and MIC spot assay on carpet of fungi. The following applies: composition 1% + thymol 1:768, or thymol 1:768 alone.
Assay [1] deals with Pathogenic Salmonella (S1). The assay can be described thus: Burkholder's spot bioassay on carpet of bacteria. The following applies: Salmonella spp. (SL1); composition 2% + thymol 1:512, or single dose of thymol 1:512. In kind it is cell-based.

In the case of `CCO` [35% ethanol, ethanol], in the assay with Fusarium graminearum, the “inhibition of spore germination” value is reported as “complete inhibition”.
`Cc1ccc(C(C)C)c(O)c1` [thymol]: the antimicrobial effectiveness entry (in the assay on Xanthomonas campestris; in the assay on Env. Salmonella (S22); in the assay with Salmonella (S31); in assay [1]) was “not effective” throughout. The “antifungal effectiveness on growth” value with Aspergillus ochraceus was “not effective”.
